Data as given in patent US7304050B2, “Antibacterial agents” (Pfizer Inc., priority 2003, dated 2007).
Converted amounts (≈) assume the structure as drawn.

Legend:
S. aureus UC-76 = test: Antibacterial assay (Test A), microtitration MIC, Gram positive; format: cell-based; settings: Gram Positive Bacteria, strain UC-76; for MIC: Staphylococcus aureus, UC76, read-out: Minimum Inhibitory Concentrations S. aureus UC-76
Protocol: (§1) The compounds of the present invention were tested against an assortment of Gram-negative and Gram-positive organisms using standard microtitration techniques (Cohen et. al., Antimicrob., 1985;28:766;Heifetz, et. al., Antimicrob., 1974;6: 124).

S pyogenes C203 = test: as above; format: cell-based; settings: Gram Positive Bacteria, strain C203; for MIC: read-out: Minimum Inhibitory Concentrations S pyogenes C203
Protocol: as §1

E. faecalis MGH-2 = test: as above; format: cell-based; settings: Gram Positive Bacteria, strain MGH-2; for MIC: Enterococcus faecalis, MGH2, read-out: Minimum Inhibitory Concentrations E. faecalis MGH-2
Protocol: as §1

M. catarrhalis BC3534 = test: Antibacterial assay (Test A), microtitration MIC, Gram negative; format: cell-based; settings: Gram Negative Bacteria, strain BC3534; for MIC: Moraxella catarrhalis, read-out: Minimum Inhibitory Concentrations M. catarrhalis BC3534
Protocol: as §1

E. coli Tol C = test: as above; format: cell-based; settings: for MIC: Escherichia coli, read-out: Minimum Inhibitory Concentrations E. coli Tol C
Protocol: as §1

H. influenzae HI3542 = test: as above; format: cell-based; settings: Gram Negative Bacteria, strain HI3542; for MIC: Haemophilus influenzae, read-out: Minimum Inhibitory Concentrations H. influenzae HI3542
Protocol: as §1

[1] = tested on: E. coli transcription and translation (TnT); format: biochemical

Compound | Minimum Inhibitory Concentrations S. aureus UC-76 (S. aureus UC-76) [µg/mL] | Minimum Inhibitory Concentrations S pyogenes C203 (S pyogenes C203) [µg/mL] | Minimum Inhibitory Concentrations E. faecalis MGH-2 (E. faecalis MGH-2) [µg/mL] | Minimum Inhibitory Concentrations M. catarrhalis BC3534 (M. catarrhalis BC3534) [µg/mL] | Minimum Inhibitory Concentrations E. coli Tol C (E. coli Tol C; Gram Negative Bacteria, strain Tol C) [µg/mL] | Minimum Inhibitory Concentrations H. influenzae HI3542 (H. influenzae HI3542) [µg/mL] | MIC (S. aureus UC-76) [µg/mL] | MIC (S pyogenes C203) [µg/mL] | MIC (E. faecalis MGH-2) [µg/mL] | Inhibitory concentration in E. coli cell-free transcription/translation (TnT) assay [1] [µg/mL] | MIC (M. catarrhalis BC3534) [µg/mL] | MIC (E. coli Tol C) [µg/mL] | MIC (H. influenzae HI3542) [µg/mL]
7-{7-[5-(Acetylamino-methyl)-2-oxo-oxazolidin-3-yl]-1,3,4,5-tetrahydro-benzo[c]azepin-2-yl}-1-cyclopropyl-8-difluoromethoxy-6-fluoro-4-oxo-1,4-dihydro-[1,8]naphthyridine-3-carboxylic Acid [Example 18] | 1 | 0.06 | 8 | 2 | 16 | 0.06 | – | – | – | – | – | – | –
COc1c(N2CCCc3cc(N4C[C@H](CNC(C)=O)OC4=O)ccc3C2)c(F)c(C)c2c(=O)c(C(=O)O)cn(C3CC3)c12 (stereo in doubt) [Example 2, 7-{7-[5-(Acetylamino-methyl)-2-oxo-oxazolidin-3-yl]-1,3,4,5-tetrahydro-benzo[c]azepin-2-yl}-1-cyclopropyl-6-fluoro-8-methoxy-5-methyl-4-oxo-1,4-dihydro-quinoline-3-carboxylic Acid] | – | – | – | – | – | – | 0.06 (≈ 0.101 µM) | 8 (≈ 13.5 µM) | 8 (≈ 13.5 µM) | 9.6 | 8 (≈ 13.5 µM) | 16 (≈ 27 µM) | 0.06 (≈ 0.101 µM)
COc1c(N2CCCc3cc(N4C[C@H](CNC(C)=O)OC4=O)ccc3C2)c(F)cc2c(=O)c(C(=O)O)cn(C3CC3)c12 (stereo in doubt) [Example 4, 7-{7-[5-(Acetylamino-methyl)-2-oxo-oxazolidin-3-yl]-1,3,4,5-tetrahydro-benzo[c]azepin-2-yl}-1-cyclopropyl-6-fluoro-8-methoxy-4-oxo-1,4-dihydro-quinoline-3-carboxylic Acid] | – | – | – | – | – | – | 0.06 (≈ 0.104 µM) | 1 (≈ 1.73 µM) | 1 (≈ 1.73 µM) | 4.0 | 0.5 (≈ 0.864 µM) | 2 (≈ 3.46 µM) | 0.06 (≈ 0.104 µM)
CC(=O)NC[C@H]1CN(c2ccc3c(c2)CCCN(c2c(F)cc4c(=O)c(C(=O)O)cn(C5CC5)c4c2F)C3)C(=O)O1 (stereo in doubt) [Example 13, 7-{7-[5-(Acetylamino-methyl)-2-oxo-oxazolidin-3-yl]-1,3,4,5-tetrahydro-benzo[c]azepin-2-yl}-1-cyclopropyl-6,8-difluoro-4-oxo-1,4-dihydro-quinoline-3-carboxylic Acid] | – | – | – | – | – | – | 0.5 (≈ 0.883 µM) | 2 (≈ 3.53 µM) | 8 (≈ 14.1 µM) | 0.6 | 1 (≈ 1.77 µM) | 4 (≈ 7.06 µM) | 0.06 (≈ 0.106 µM)
CC(=O)NC[C@H]1CN(c2ccc3c(c2)CCCN(c2nc4c(cc2F)c(=O)c(C(=O)O)cn4C2CC2)C3)C(=O)O1 (stereo in doubt) [Example 15, 7-{7-[5-(Acetylamino-methyl)-2-oxo-oxazolidin-3-yl]-1,3,4,5-tetrahydro-benzo[c]azepin-2-yl}-1-cyclopropyl-6-fluoro-4-oxo-1,4-dihydro-[1,8]naphthyridine-3-carboxylic Acid] | – | – | – | – | – | – | 2 (≈ 3.64 µM) | 4 (≈ 7.28 µM) | 4 (≈ 7.28 µM) | – | 4 (≈ 7.28 µM) | 4 (≈ 7.28 µM) | 0.06 (≈ 0.109 µM)
CC(=O)NC[C@H]1CN(c2ccc3c(c2)CCCN(c2c(F)cc4c(=O)c(C(=O)O)cn(C5CC5)c4c2Cl)C3)C(=O)O1 [Example 1, 7-{7-[5-(Acetylamino-methyl)-2-oxo-oxazolidin-3-yl]-1,3,4,5-tetrahydro-benzo[c]azepin-2-yl}-8-chloro-1-cyclopropyl-6-fluoro-4-oxo-1,4-dihydro-quinoline-3-carboxylic Acid] | – | – | – | – | – | – | 0.06 (≈ 0.103 µM) | 2 (≈ 3.43 µM) | 1 (≈ 1.72 µM) | 9.4 | 0.25 (≈ 0.429 µM) | 2 (≈ 3.43 µM) | 0.06 (≈ 0.103 µM)
CC(=O)NC[C@H]1CN(c2ccc3c(c2)CCCN(c2cc4c(c(C)c2F)c(=O)c(C(=O)O)cn4C2CC2)C3)C(=O)O1 [Example 3, 7-{7-[5-(Acetylamino-methyl)-2-oxo-oxazolidin-3-yl]-1,3,4,5-tetrahydro-benzo[c]azepin-2-yl}-1-cyclopropyl-6-fluoro-5-methyl-4-oxo-1,4-dihydro-quinoline-3-carboxylic Acid] | – | – | – | – | – | – | 1 (≈ 1.78 µM) | 16 (≈ 28.4 µM) | 32 (≈ 56.9 µM) | – | 16 (≈ 28.4 µM) | 32 (≈ 56.9 µM) | 0.06 (≈ 0.107 µM)
CC(=O)NC[C@H]1CN(c2ccc3c(c2)CCCN(c2c(F)cc4c(=O)c(C(=O)O)cn5c4c2OCC5C)C3)C(=O)O1 (some centres unmarked) [Example 5, 9-{7-[5-(Acetylamino-methyl)-2-oxo-oxazolidin-3-yl]-1,3,4,5-tetrahydro-benzo[c]azepin-2-yl}-8-fluoro-3-methyl-6-oxo-2,3-dihydro-6 H-1-oxa-3a-aza-phenalene-5-carboxylic Acid] | – | – | – | – | – | – | 1 (≈ 1.77 µM) | 8 (≈ 14.2 µM) | 32 (≈ 56.7 µM) | 22.4 | 2 (≈ 3.54 µM) | 8 (≈ 14.2 µM) | 0.06 (≈ 0.106 µM)
COc1c(N2CCc3ccc(N4C[C@H](CNC(C)=O)OC4=O)cc3CC2)c(F)c(C)c2c(=O)c(C(=O)O)cn(C3CC3)c12 [Example 6, 7-{7-[5-(Acetylamino-methyl)-2-oxo-oxazolidin-3-yl]-1,2,4,5-tetrahydro-benzo[d]azepin-3-yl}-1-cyclopropyl-6-fluoro-8-methoxy-5-methyl-4-oxo-1,4-dihydro-quinoline-3-carboxylic Acid] | – | – | – | – | – | – | 0.06 (≈ 0.101 µM) | 0.25 (≈ 0.422 µM) | 0.25 (≈ 0.422 µM) | 9.6 | 0.13 (≈ 0.219 µM) | 2 (≈ 3.37 µM) | 0.06 (≈ 0.101 µM)
COc1c(N2CCc3ccc(N4C[C@H](CNC(C)=O)OC4=O)cc3CC2)c(F)cc2c(=O)c(C(=O)O)cn(C3CC3)c12 [Example 7, 7-{7-[5-(Acetylamino-methyl)-2-oxo-oxazolidin-3-yl]-1,2,4,5-tetrahydro-benzo[d]azepin-3-yl}-1-cyclopropyl-6-fluoro-8-methoxy-4-oxo-1,4-dihydro-quinoline-3-carboxylic Acid] | – | – | – | – | – | – | 0.06 (≈ 0.104 µM) | 1 (≈ 1.73 µM) | 0.5 (≈ 0.864 µM) | 11.8 | 0.25 (≈ 0.432 µM) | 2 (≈ 3.46 µM) | 0.06 (≈ 0.104 µM)
CC(=O)NC[C@H]1CN(c2ccc3c(c2)CCN(c2nc4c(cc2F)c(=O)c(C(=O)O)cn4-c2ccc(F)cc2F)CC3)C(=O)O1 [Example 8, 7-{7-[5-(Acetylamino-methyl)-2-oxo-oxazolidin-3-yl]-1,2,4,5-tetrahydro-benzo[d]azepin-3-yl}-1-(2,4-difluoro-phenyl)-6-fluoro-4-oxo-1,4-dihydro-[1,8]naphthyridine-3-carboxylic Acid] | – | – | – | – | – | – | 0.5 (≈ 0.804 µM) | 8 (≈ 12.9 µM) | 16 (≈ 25.7 µM) | 23.0 | 2 (≈ 3.22 µM) | 2 (≈ 3.22 µM) | 0.06 (≈ 0.0965 µM)
CC(=O)NC[C@H]1CN(c2ccc3c(c2)CCN(c2cc4c(cc2F)c(=O)c(C(=O)O)cn4C2CC2)CC3)C(=O)O1 [Example 9, 7-{7-[5-(Acetylamino-methyl)-2-oxo-oxazolidin-3-yl]-1,2,4,5-tetrahydro-benzo[d]azepin-3-yl}-1-cyclopropyl-6-fluoro-4-oxo-1,4-dihydro-quinoline-3-carboxylic Acid] | – | – | – | – | – | – | 0.13 (≈ 0.237 µM) | 4 (≈ 7.29 µM) | 8 (≈ 14.6 µM) | 13.0 | 0.5 (≈ 0.911 µM) | 4 (≈ 7.29 µM) | 0.06 (≈ 0.109 µM)
CC(=O)NC[C@H]1CN(c2ccc3c(c2)CCN(c2c(F)cc4c(=O)c(C(=O)O)cn(C5CC5)c4c2Cl)CC3)C(=O)O1 [Example 10, 7-{7-[5-(Acetylamino-methyl)-2-oxo-oxazolidin-3-yl]-1,2,4,5-tetrahydro-benzo[d]azepin-3-yl}-8-chloro-1-cyclopropyl-6-fluoro-4-oxo-1,4-dihydro-quinoline-3-carboxylic Acid] | – | – | – | – | – | – | 0.06 (≈ 0.103 µM) | 0.25 (≈ 0.429 µM) | 0.25 (≈ 0.429 µM) | 5.4 | 0.13 (≈ 0.223 µM) | 1 (≈ 1.72 µM) | 0.06 (≈ 0.103 µM)
CC(=O)NC[C@H]1CN(c2ccc3c(c2)CCN(c2cc4c(c(C)c2F)c(=O)c(C(=O)O)cn4C2CC2)CC3)C(=O)O1 [Example 11, 7-{7-[5-(Acetylamino-methyl)-2-oxo-oxazolidin-3-yl]-1,2,4,5-tetrahydro-benzo[d]azepin-3-yl}-1-cyclopropyl-6-fluoro-5-methyl-4-oxo-1,4-dihydro-quinoline-3-carboxylic Acid] | – | – | – | – | – | – | 0.06 (≈ 0.107 µM) | 16 (≈ 28.4 µM) | 8 (≈ 14.2 µM) | 10 | 0.5 (≈ 0.889 µM) | 8 (≈ 14.2 µM) | 0.06 (≈ 0.107 µM)
CCn1cc(C(=O)O)c(=O)c2cc(F)c(N3CCCc4cc(N5C[C@H](CNC(C)=O)OC5=O)ccc4C3)nc21 [Example 17, 7-{7-[5-(Acetylamino-methyl)-2-oxo-oxazolidin-3-yl]-1,3,4,5-tetrahydro-benzo[c]azepin-2-yl}-1-ethyl-6-fluoro-4-oxo-1,4-dihydro-[1,8]naphthyridine-3-carboxylic Acid] | – | – | – | – | – | – | 64 (≈ 119 µM) | 64 (≈ 119 µM) | 64 (≈ 119 µM) | – | 64 (≈ 119 µM) | 64 (≈ 119 µM) | 0.5 (≈ 0.93 µM)
